For this data set, the system named is CCRIS mutagenicity, Ames/micronucleus/aberration tests. As to the kind of experiment: CCRIS mutagenicity studies.
The mark [1] stands for this setting: Test System: AMES SALMONELLA TYPHIMURIUM, Strain/Indicator: TA98, Metabolic Activation: HAMSTER, LIVER, S-9, AROCLOR 1254, Method: STANDARD PLATE.
Where [2] appears, read: Test System: AMES SALMONELLA TYPHIMURIUM, Strain/Indicator: TA98, Metabolic Activation: NONE, Method: STANDARD PLATE.
[3] abbreviates: Test System: AMES SALMONELLA TYPHIMURIUM, Strain/Indicator: TA98, Metabolic Activation: RAT, LIVER, S-9, AROCLOR 1254, Method: STANDARD PLATE.
Where [4] appears, read: Test System: AMES SALMONELLA TYPHIMURIUM, Strain/Indicator: TA100, Metabolic Activation: HAMSTER, LIVER, S-9, AROCLOR 1254, Method: STANDARD PLATE.
Where [5] appears, read: Test System: AMES SALMONELLA TYPHIMURIUM, Strain/Indicator: TA100, Metabolic Activation: NONE, Method: STANDARD PLATE.
Where [6] appears, read: Test System: AMES SALMONELLA TYPHIMURIUM, Strain/Indicator: TA100, Metabolic Activation: RAT, LIVER, S-9, AROCLOR 1254, Method: STANDARD PLATE.
The mark [7] stands for this setting: Test System: AMES SALMONELLA TYPHIMURIUM, Strain/Indicator: TA1535, Metabolic Activation: HAMSTER, LIVER, S-9, AROCLOR 1254, Method: STANDARD PLATE.
The mark [8] stands for this setting: Test System: AMES SALMONELLA TYPHIMURIUM, Strain/Indicator: TA1535, Metabolic Activation: NONE, Method: STANDARD PLATE.
Setting [9] is: Test System: AMES SALMONELLA TYPHIMURIUM, Strain/Indicator: TA1535, Metabolic Activation: RAT, LIVER, S-9, AROCLOR 1254, Method: STANDARD PLATE.
Setting [10] is: Test System: AMES SALMONELLA TYPHIMURIUM, Strain/Indicator: TA1537, Metabolic Activation: HAMSTER, LIVER, S-9, AROCLOR 1254, Method: STANDARD PLATE.
[11] abbreviates: Test System: AMES SALMONELLA TYPHIMURIUM, Strain/Indicator: TA1537, Metabolic Activation: NONE, Method: STANDARD PLATE.
Where [12] appears, read: Test System: AMES SALMONELLA TYPHIMURIUM, Strain/Indicator: TA1537, Metabolic Activation: RAT, LIVER, S-9, AROCLOR 1254, Method: STANDARD PLATE.
Where [13] appears, read: Test System: AMES SALMONELLA TYPHIMURIUM, Strain/Indicator: TA1538, Metabolic Activation: HAMSTER, LIVER, S-9, AROCLOR 1254, Method: STANDARD PLATE.
Where [14] appears, read: Test System: AMES SALMONELLA TYPHIMURIUM, Strain/Indicator: TA1538, Metabolic Activation: NONE, Method: STANDARD PLATE.
The mark [15] stands for this setting: Test System: AMES SALMONELLA TYPHIMURIUM, Strain/Indicator: TA1538, Metabolic Activation: RAT, LIVER, S-9, AROCLOR 1254, Method: STANDARD PLATE.
Setting [16] is: Test System: MOUSE LYMPHOMA, Strain/Indicator: L5178Y (TK+/TK-), Metabolic Activation: NONE, Method: SUSPENSION/PLATE.
[17] abbreviates: Test System: MOUSE LYMPHOMA, Strain/Indicator: L5178Y (TK+/TK-), Metabolic Activation: RAT, LIVER, S-9, AROCLOR 1254, Method: SUSPENSION/PLATE.
Where [18] appears, read: Test System: AMES SALMONELLA TYPHIMURIUM, Strain/Indicator: TA98, Metabolic Activation: NONE, Method: PREINCUBATION
The mark [19] stands for this setting: Test System: AMES SALMONELLA TYPHIMURIUM, Strain/Indicator: TA98, Metabolic Activation: RAT, LIVER, S-9, KANECHLOR 500, Method: PREINCUBATION
[20] abbreviates: Test System: AMES SALMONELLA TYPHIMURIUM, Strain/Indicator: TA100, Metabolic Activation: NONE, Method: PREINCUBATION
Setting [21] is: Test System: AMES SALMONELLA TYPHIMURIUM, Strain/Indicator: TA100, Metabolic Activation: RAT, LIVER, S-9, KANECHLOR 500, Method: PREINCUBATION

Activity calls are given as the source filed them. The rule behind the calls is not given here.

As to `Clc1nnc(Cl)c2ccccc12`, the mutagenic call under setting [1] is “inactive; negative”; the mutagenic call under setting [2] was “inactive; negative”; the mutagenic call under setting [3] is “inactive; negative”; the mutagenic call under setting [4] is “inactive; negative”; the mutagenic call under setting [5] was “inactive; negative”; the mutagenic call under setting [6] was “inactive; negative”. Further, the mutagenic call under setting [7] was “inactive; negative”; the mutagenic call under setting [8] was “inactive; negative”; the mutagenic call under setting [9] was “inactive; negative”; the mutagenic call under setting [10] was “inactive; negative”; the mutagenic call under setting [11] was “inactive; negative”; the mutagenic call under setting [12] was “inactive; negative”. In addition, the mutagenic call under setting [13] is “inactive; negative”; the mutagenic call under setting [14] was “inactive; negative”; the mutagenic call under setting [15] is “inactive; negative”; the mutagenic call under setting [16] was “active; positive. reevaluation of results: inconclusive”; the mutagenic call under setting [17] is “active; positive. reevaluation of results: positive”.

On to `C/C=C/c1ccc(O)c(OC)c1`, for which the mutagenic call was “inactive; negative” (End Point: E. coli, Test System: WP2uvrA/pKM101, Metabolic Activation: None, Method: Preincubation); “inactive; negative” (End Point: E. coli, Test System: WP2uvrA/pKM101, Metabolic Activation: Rat, Liver, S-9, Aroclor 1254 (10%), Method: Preincubation); “inactive; negative” (End Point: In vitro chromosomal aberrations, Test System: Chinese hamster ovary (CHO) cells, Metabolic Activation: None); “inactive; negative” (End Point: In vitro chromosomal aberrations, Test System: Chinese hamster ovary (CHO) cells, Metabolic Activation: Rat, Liver, S-9, Aroclor 1254); “active; positive” (End Point: In vivo micronucleus, Test System: Micronucleated normochromatic erythrocytes in perripheral blood, Species: Mouse, Strain/Sex: B6C3F1 / Female, Route: Oral); “inactive; negative” (End Point: In vivo micronucleus, Test System: Micronucleated normochromatic erythrocytes in perripheral blood, Species: Mouse, Strain/Sex: B6C3F1 / Male, Route: Oral). Also, the mutagenic call was “inactive; negative” (Test System: AMES SALMONELLA TYPHIMURIUM, Strain/Indicator: TA97, Metabolic Activation: NONE, Method: PREINCUBATION); “inactive; negative” (Test System: AMES SALMONELLA TYPHIMURIUM, Strain/Indicator: TA97, Metabolic Activation: RAT, LIVER, S-9, AROCLOR 1254, Method: PREINCUBATION); “inactive; negative” under setting [1]; “inactive; negative” under setting [2]; “inactive; negative” under setting [3]; “inactive; negative” under setting [4]. In addition, the mutagenic call is “inactive; negative” under setting [5]; “inactive; negative” under setting [6]; “inactive; negative” (Test System: AMES SALMONELLA TYPHIMURIUM, Strain/Indicator: TA102, Metabolic Activation: NONE, Method: PREINCUBATION); “inactive; negative” (Test System: AMES SALMONELLA TYPHIMURIUM, Strain/Indicator: TA102, Metabolic Activation: RAT, LIVER, S-9, AROCLOR 1254, Method: PREINCUBATION); “inactive; negative” under setting [7]; “inactive; negative” under setting [8]. Besides, the mutagenic call was “inactive; negative” under setting [9]; “inactive; negative” under setting [10]; “inactive; negative” under setting [11]; “inactive; negative” under setting [12]; “inactive; negative” under setting [13]; “inactive; negative” under setting [14]. For the same compound, the mutagenic call under setting [15] is “inactive; negative”, the mutagenic call under setting [16] was “active; positive. reevaluation of results: positive” and the mutagenic call under setting [17] was “inactive; negative. reevaluation of results: negative”.

Consider `OC[C@@H](O)CCl`, for which the mutagenic call under setting [18] was “inactive; negative”; the mutagenic call under setting [19] was “inactive; negative”; the mutagenic call under setting [20] is “active; positive”; the mutagenic call under setting [21] is “inactive; negative”; the mutagenic call (Test System: AMES SALMONELLA TYPHIMURIUM, Strain/Indicator: TA100, Metabolic Activation: RAT, LIVER, S-9, PCB, Method: PREINCUBATION) was “active; positive”.

As for `Cc1ccc(N)c([N+](=O)[O-])c1`, the mutagenic call reads like this: under setting [18], “inactive; negative”; under setting [19], “inactive; negative”; under setting [20], “inactive; negative”; under setting [21], “inactive; negative”; (Test System: UDS RODENT HEPATOCYTES, Strain/Indicator: THY INCORP (NON-S-PHASE), Metabolic Activation: NONE, Method: AUTORADIOGRAPHY) “inactive; negative”.

`CC(C)S(=O)(=O)Cl`: the mutagenic call under setting [18] was “inactive; negative”; the mutagenic call (Test System: AMES SALMONELLA TYPHIMURIUM, Strain/Indicator: TA98, Metabolic Activation: RAT, LIVER, S-9, PHENOBARBITAL, Method: PREINCUBATION) was “active; positive”; the mutagenic call under setting [20] is “active; positive”; the mutagenic call (Test System: AMES SALMONELLA TYPHIMURIUM, Strain/Indicator: TA100, Metabolic Activation: RAT, LIVER, S-9, PHENOBARBITAL, Method: PREINCUBATION) is “active; positive”.

These data come from PubChem BioAssay AID1259407 (Chemical Carcinogenesis Research Information System (CCRIS), 2018).
